Data reported in patent publication US4211779A, “7α-Methoxy substituted cephalosporins” (Shionogi & Co., Ltd., priority 1976, dated 1980).
≈ marks a conversion by molar mass, not a printed value.

Key:
Type in all cases: cell-based
[1] = test system: Klebsilla pneumoniae No. 363; assay: Antibacterial activity (MIC), Klebsiella pneumoniae No. 363
Description: (§1) Free acids found in Examples 2 to 5 are dissolved in dilute aqueous sodium hydrogencarbonate solution to yield the corresponding aqueous sodium salts solutions.

[2] = test system: gram negative bacteria resistant to cephalosporins; assay: antibacterial activity against gram negative bacteria resistant to cephalosporins; conditions: compared with the compound wherein Y is hydrogen
Escherichia coli No. 73 = assay: Antibacterial activity (MIC), Escherichia coli No. 73
Description: as §1

[3] = NO.363, Klebsiella pneumoniae No. 363, innoculum size 10^6
[4] = NO.363, Klebsiella pneumoniae No. 363, innoculum size 10^8

MIC [1, 3]	MIC [1, 4]	MIC (Escherichia coli No. 73; innoculum size 10^6)	MIC (Escherichia coli No. 73; innoculum size 10^8)	SMILES	antibacterial activity against gram negative bacteria resistant to cephalosporins [2]
100 µg/mL (≈ 155 µM)	> 100 µg/mL	25 µg/mL (≈ 38.7 µM)	> 100 µg/mL	CCN1CCN(C(=O)NC(C(=O)N[C@@H]2C(=O)N3C(C(=O)O)=C(CSc4nnnn4C)CS[C@H]23)c2ccc(O)cc2)C(=O)C1=O (stereo partly shown) [Y H]	–
1.6 µg/mL (≈ 3.74 µM)	6.3 µg/mL (≈ 14.7 µM)	12.5 µg/mL (≈ 29.2 µM)	12.5 µg/mL (≈ 29.2 µM)	CO[C@@]1(NC(=O)Cc2cccs2)C(=O)N2C(C(=O)O)=C(COC(N)=O)CS[C@@H]21 [cefoxitin]	–

SMILES	MIC [1, 3]	MIC [1, 4]	MIC (Escherichia coli No. 73; innoculum size 10^6)	MIC (Escherichia coli No. 73; innoculum size 10^8)	antibacterial activity against gram negative bacteria resistant to cephalosporins [2]
CCN1CCN(C(=O)NC(C(=O)NC2(OC)C(=O)N3C(C(=O)O)=C(CSc4nnnn4C)CSC32)c2ccc(O)cc2)C(=O)C1=O (stereo not shown) [Y OCH3]	0.8 µg/mL (≈ 1.18 µM)	1.6 µg/mL (≈ 2.37 µM)	1.6 µg/mL (≈ 2.37 µM)	3.1 µg/mL (≈ 4.59 µM)	more potent antibacterial activity
